Assay results taken from PubChem BioAssay (NCI).
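Five compound concentrations were applied to cells in 96-well plates for 48 hours; endpoints were derived by simple linear interpolation of the resulting dose-response curve. TGI: concentration producing complete growth inhibition.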

Experiments:
Test in all cases: NCI tumour cell line growth inhibition, 48 h
[1] = system: NCI-H226 lung
[2] = system: RXF-631 renal
[3] = system: LXFL 529 NSCLC
[4] = system: HS 578T breast
[5] = system: MDA-MB-435
[6] = system: MDA-MB-231 breast
[7] = system: MDA-N
[8] = system: BT-549 breast
[9] = system: PC-3 prostate
[10] = system: T-47D breast
[11] = system: DU-145 prostate

`NC(CSCSCC(N)C(=O)O)C(=O)O` (stereo not drawn) was tested, and the TGI [1] was greater than 225 µM.

`CC(C)(C)CI` was tested, and the TGI [2] was greater than 100 µM and the TGI [3] was greater than 100 µM.

Molecule `COc1ccc(-c2c3c(nc4nc(SCC(=O)c5ccc(Br)cc5)nc(N)c24)CCCC3)cc1OC` has a TGI [4] of 28.6 µM, a TGI [5] greater than 100 µM and a TGI [6] greater than 100 µM. For the same molecule, the TGI [7] was greater than 100 µM, the TGI [8] was greater than 100 µM and the TGI [9] was greater than 100 µM. It also gave a TGI [10] greater than 100 µM and a TGI [11] greater than 100 µM.

`O=C1CCC2COc3ccc(O)c1c32` (stereo not drawn) was tested, and the TGI [3] was greater than 100 µM.

For `O=C1OC(c2ccccc2Br)=N/C1=C/c1ccccc1`, the TGI [4] was greater than 100 µM, the TGI [5] was 93.7 µM and the TGI [6] was 89.8 µM. The TGI [7] was 49.4 µM, the TGI [1] was 77.9 µM and the TGI [9] was greater than 100 µM. For the same molecule, the TGI [10] was greater than 100 µM and the TGI [11] was greater than 100 µM.

`COc1nc(NC2OC(CO)C(O)C(O)C2O)c(N)c(=O)[nH]1` (stereo not drawn) showed a TGI [1] greater than 31.6 µM.

`O=c1oc2ccccc2n1P(=O)(Oc1ccc(Cl)cc1)n1c(=O)oc2ccccc21` was tested, and the TGI [1] was greater than 100 µM.

In the case of `CC1OC(CO)(n2cnc3c(N)ncnc32)C(O)C1O` (stereo not drawn), the TGI [1] is reported as greater than 100 µM.
